From ChEMBL document CHEMBL1140364, “Anxiolytic effects of benzalphthalides” (2005)

Columns and labels:
Assay type in all cases: functional
Mus musculus [1] = assay: Number of entries into the open arms of the maze for anxiolytic activity in ICR mouse through elevated plus maze test after intraperitoneal injection of 15 mg/kg
Mus musculus [2] = assay: Percentage number of entries into the open arms of the maze for anxiolytic activity in ICR mouse through elevated plus test after intraperitoneal injection of 15 mg/kg
Mus musculus [3] = assay: Number of entries into the closed arms of the maze for anxiolytic activity in ICR mouse through elevated plus test after intraperitoneal injection of 15 mg/kg
Mus musculus [4] = assay: Time spent into the open arms of the maze for anxiolytic activity in ICR mouse through elevated plus maze test after intraperitoneal injection of 15 mg/kg
Mus musculus [5] = assay: Total number of entries into the open and closed arms of the maze for anxiolytic activity in ICR mouse through elevated plus test after intraperitoneal injection of 15 mg/kg

Compound: C[S+]([O-])c1ccc(/C=C2\OC(=O)c3ccccc32)cc1 (stereo not given)
- No. of entries (Mus musculus [1]): 10.8
- No. of entries (Mus musculus [2]): 55.6%
- No. of entries (Mus musculus [3]): 9
- Spent time (Mus musculus [4]): 0.0427 h
- Total number of entries (Mus musculus [5]): 19.8

Compound: O=C1O/C(=C\c2ccc([N+](=O)[O-])cc2)c2ccccc21
- No. of entries (Mus musculus [1]): 9
- No. of entries (Mus musculus [2]): 57.2%
- No. of entries (Mus musculus [3]): 7.3
- Spent time (Mus musculus [4]): 0.0441 h
- Total number of entries (Mus musculus [5]): 16.3

Compound: CSc1ccc(/C=C2\OC(=O)c3ccccc32)cc1
- No. of entries (Mus musculus [1]): 7.9
- No. of entries (Mus musculus [2]): 49.5%
- No. of entries (Mus musculus [3]): 9.9
- Spent time (Mus musculus [4]): 0.0363 h
- Total number of entries (Mus musculus [5]): 17.7

Compound: COc1ccc(/C=C2\OC(=O)c3ccc(C(N)=O)cc32)cc1
- No. of entries (Mus musculus [1]): 13
- No. of entries (Mus musculus [2]): 50.2%
- No. of entries (Mus musculus [3]): 11.5
- Spent time (Mus musculus [4]): 0.0348 h
- Total number of entries (Mus musculus [5]): 24

Compound: COc1cc(/C=C2\OC(=O)c3ccccc32)cc(OC)c1OC
- No. of entries (Mus musculus [1]): 8.3
- No. of entries (Mus musculus [2]): 44.8%
- No. of entries (Mus musculus [3]): 9
- Spent time (Mus musculus [4]): 0.0296 h
- Total number of entries (Mus musculus [5]): 17.3

Compound: O=C1O/C(=C\c2ccc(Cl)cc2)c2ccccc21
- No. of entries (Mus musculus [1]): 8
- No. of entries (Mus musculus [2]): 55.8%
- No. of entries (Mus musculus [3]): 8.5
- Spent time (Mus musculus [4]): 0.0444 h
- Total number of entries (Mus musculus [5]): 16.5

Compound: O=C1O/C(=C\c2ccc3c(c2)OCO3)c2ccccc21
- No. of entries (Mus musculus [1]): 11.2
- No. of entries (Mus musculus [2]): 54.4%
- No. of entries (Mus musculus [3]): 9
- Spent time (Mus musculus [4]): 0.0418 h
- Total number of entries (Mus musculus [5]): 20.2

Compound: CS(=O)(=O)c1ccc(/C=C2\OC(=O)c3ccccc32)cc1
- No. of entries (Mus musculus [1]): 10.6
- No. of entries (Mus musculus [2]): 69.9%
- No. of entries (Mus musculus [3]): 5.6
- Spent time (Mus musculus [4]): 0.052 h
- Total number of entries (Mus musculus [5]): 16.4

Compound: COc1ccc(/C=C2\OC(=O)c3cc([N+](=O)[O-])c([N+](=O)[O-])cc32)cc1
- No. of entries (Mus musculus [1]): 11.7
- No. of entries (Mus musculus [2]): 51.7%
- No. of entries (Mus musculus [3]): 10.5
- Spent time (Mus musculus [4]): 0.0359 h
- Total number of entries (Mus musculus [5]): 22.2

Compound: CCCCCCCCCCCC(=O)OCCOCC(OCCO)C1OCC(OCCO)C1OCCO (stereo not given)
- No. of entries (Mus musculus [1]): 9.6
- No. of entries (Mus musculus [2]): 51.2%
- No. of entries (Mus musculus [3]): 8.9
- Spent time (Mus musculus [4]): 0.034 h
- Total number of entries (Mus musculus [5]): 18.5

Compound: COc1ccc(/C=C2\OC(=O)c3ccccc32)cc1
- No. of entries (Mus musculus [1]): 13
- No. of entries (Mus musculus [2]): 64.1%
- No. of entries (Mus musculus [3]): 7.1
- Spent time (Mus musculus [4]): 0.0493 h
- Total number of entries (Mus musculus [5]): 20.1

Compound: CN1C(=O)CN=C(c2ccccc2)c2cc(Cl)ccc21 [DIAZEPAM]
- No. of entries (Mus musculus [1]): 15.8
- No. of entries (Mus musculus [2]): 82%
- No. of entries (Mus musculus [3]): 3.7
- Spent time (Mus musculus [4]): 0.064 h
- Total number of entries (Mus musculus [5]): 19.5

Compound: C=C(C)[C@@H]1[C@H]2OC(=O)[C@@H]1[C@]1(O)C[C@H]3OC34C(=O)O[C@H]2[C@@]41C.CC(C)(O)[C@@H]1[C@H]2OC(=O)[C@@H]1[C@]1(O)C[C@H]3OC34C(=O)O[C@H]2[C@@]41C (stereo not given in full) [PICROTOXIN]
- No. of entries (Mus musculus [1]): 2.5
- No. of entries (Mus musculus [2]): 19%
- No. of entries (Mus musculus [3]): 9.4
- Spent time (Mus musculus [4]): 0.00739 h
- Total number of entries (Mus musculus [5]): 11.8
